The values below come from patent US7423054B2, “Therapeutic pyrazolo[3,4-b]pyridines and indazoles” (Warner Lambert Company LLC, priority 2004, dated 2008).

Structures can show the parent of a compound that is named as a salt.

Assay [1] addresses T1, human norepinephrine transporter (hNET) (Homo sapiens, UniProt P23975).
T1 construct: expressed in transfected cells; host or cells: HEK-293 cells (membrane preparation)
The assay is described as follows: hNET receptor binding ([125I]-RTI-55 displacement, membranes of transfected HEK-293 cells). The note with it: HEK-293 membranes, Ki from IC50 by Cheng-Prusoff, read-out: NET Ki. Summed up:
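Membranes from HEK-293 cells expressing human NET were incubated 90 min at room temperature with 50 pM [125I]-RTI-55 and compound (10^−5 to 10^−12 M) in Krebs-HEPES buffer, pH 7.4. Bound radioligand was counted after filtration, with nonspecific binding defined by 10 μM desipramine. IC50 was converted to Ki by Cheng-Prusoff.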

The target of assay [2] is T2, human serotonin transporter (hSERT) (Homo sapiens, UniProt P31645).
T2 construct: expressed in transfected cells; host or cells: HEK-293 cells (membrane preparation)
As to the kind of experiment: hSERT receptor binding ([125I]-RTI-55 displacement, membranes of transfected HEK-293 cells). Conditions: HEK-293 membranes, Ki from IC50 by Cheng-Prusoff, read-out: SERT Ki. Summed up:
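Membranes from HEK-293 cells expressing human SERT were incubated 90 min at room temperature in Krebs-HEPES (pH 7.4) with 50 pM [125I]-RTI-55 and compound (10^-12 to 10^-5 M), in duplicate. Nonspecific binding was defined with 10 μM citalopram. Ki from IC50 by Cheng-Prusoff.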

T2 sequence (P31645 whole entry): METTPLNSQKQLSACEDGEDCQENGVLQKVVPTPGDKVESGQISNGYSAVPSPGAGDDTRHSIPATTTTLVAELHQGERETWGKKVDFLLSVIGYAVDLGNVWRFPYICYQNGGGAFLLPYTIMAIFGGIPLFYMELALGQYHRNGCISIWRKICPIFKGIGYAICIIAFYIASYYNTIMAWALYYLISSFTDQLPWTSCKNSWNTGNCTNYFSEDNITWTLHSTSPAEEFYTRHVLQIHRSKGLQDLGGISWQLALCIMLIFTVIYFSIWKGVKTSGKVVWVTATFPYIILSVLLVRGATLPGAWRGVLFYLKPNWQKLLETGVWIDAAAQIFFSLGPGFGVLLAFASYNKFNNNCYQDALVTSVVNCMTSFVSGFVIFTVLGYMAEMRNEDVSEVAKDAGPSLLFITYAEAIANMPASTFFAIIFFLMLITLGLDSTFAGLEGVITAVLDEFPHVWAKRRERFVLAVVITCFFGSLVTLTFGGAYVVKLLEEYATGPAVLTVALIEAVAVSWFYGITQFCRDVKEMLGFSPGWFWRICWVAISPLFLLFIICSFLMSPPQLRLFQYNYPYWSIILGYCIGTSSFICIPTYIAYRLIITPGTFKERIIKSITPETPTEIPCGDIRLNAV
T1 sequence (P23975 whole entry): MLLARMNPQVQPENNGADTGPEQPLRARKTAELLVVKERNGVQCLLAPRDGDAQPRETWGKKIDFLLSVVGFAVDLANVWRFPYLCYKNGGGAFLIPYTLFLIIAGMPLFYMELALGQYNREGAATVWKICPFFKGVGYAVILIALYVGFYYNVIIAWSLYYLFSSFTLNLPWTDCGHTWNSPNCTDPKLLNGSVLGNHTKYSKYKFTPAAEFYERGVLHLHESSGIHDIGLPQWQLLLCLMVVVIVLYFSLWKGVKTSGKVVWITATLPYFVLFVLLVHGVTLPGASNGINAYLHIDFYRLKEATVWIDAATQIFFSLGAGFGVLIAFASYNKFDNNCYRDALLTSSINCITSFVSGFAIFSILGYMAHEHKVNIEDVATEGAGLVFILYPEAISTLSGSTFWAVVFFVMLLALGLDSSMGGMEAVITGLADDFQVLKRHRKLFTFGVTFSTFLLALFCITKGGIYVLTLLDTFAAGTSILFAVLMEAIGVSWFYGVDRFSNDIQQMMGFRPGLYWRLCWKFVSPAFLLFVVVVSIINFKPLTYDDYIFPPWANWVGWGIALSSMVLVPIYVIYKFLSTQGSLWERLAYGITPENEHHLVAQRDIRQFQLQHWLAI

Usually Ki stands for a measure of affinity in units of concentration, obtained from inhibition or displacement. Take `Fc1ccc(F)c(-n2nc(OC3CCNCC3)c3c(F)cccc32)c1` [Example 90, 1-(2,5-Difluoro-phenyl)-4-fluoro-3-(piperidin-4-yloxy)-1H-indazole hydrochloride]: the Ki in assay [1] is 10.2 nM; in assay [2] it was 142 nM.
Turning to `Fc1ccc(F)c(-n2nc(OC[C@H]3CCCNC3)c3c(F)cccc32)c1` [Example 91, (S)-1-(2,5-Difluoro-phenyl)-4-fluoro-3-(piperidin-3-ylmethoxy)-1H-indazole hydrochloride], the Ki is 7.88 nM in assay [1] and 610 nM in assay [2].
Taken in the same sequence, the figures for `Fc1ccc(-n2nc(OC[C@@H]3CCNC3)c3c(F)cccc32)c(F)c1` [Example 92, (R)-1-(2,4-Difluoro-phenyl)-4-fluoro-3-(pyrrolidin-3-ylmethoxy)-1H-indazole hydrochloride] were 28.5 nM and 126 nM.
With `Fc1ccc(F)c(-n2nc(OC[C@@H]3CCNC3)c3c(F)cccc32)c1` [Example 93, (R)-1-(2,5-Difluoro-phenyl)-4-fluoro-3-(pyrrolidin-3-ylmethoxy)-1H-indazole hydrochloride], the Ki in assay [1] amounted to 16.4 nM; in assay [2] it was 224 nM.
For the compound `Fc1ccc(-n2nc(OC[C@@H]3CNCCO3)c3c(F)cccc32)c(F)c1` [Example 94, (S)-1-(2,4-Difluoro-phenyl)-4-fluoro-3-(morpholin-2-ylmethoxy)-1H-indazole hydrochloride], the Ki worked out at 40.2 nM in assay [1] and 2850 nM in assay [2].
For the compound `Fc1ccc(F)c(-n2nc(OC[C@@H]3CNCCO3)c3c(F)cccc32)c1` [Example 95, (S)-1-(2,5-Difluoro-phenyl)-4-fluoro-3-(morpholin-2-ylmethoxy)-1H-indazole hydrochloride], the Ki was 5.47 nM in assay [1] and 3470 nM in assay [2].
In the case of `Fc1ccc2c(c1)c(OC1CCNCC1)nn2-c1ccc(F)c(F)c1` [Example 97, 1-(3,4-Difluoro-phenyl)-5-fluoro-3-(piperidin-4-yloxy)-1H-indazole hydrochloride], the Ki in assay [1] worked out at 28.5 nM; in assay [2], 39.5 nM.
Taken in the same sequence, the figures for `Fc1ccccc1-n1nc(OC[C@@H]2CNCCO2)c2c(F)cccc21` [Example 98, (S)-(+)-4-Fluoro-1-(2-fluorophenyl)-3-(morpholin-2-ylmethoxy)-1H-indazole maleate] were 27.3 nM and 3860 nM.
Taken in the same sequence, the figures for `Fc1ccc2c(c1)c(OCC1CCCNC1)nn2-c1ccccn1` (centres unmarked) [Example 99, 5-Fluoro-3-(piperidin-3-ylmethoxy)-1-pyridin-2-yl-1H-indazole hydrochloride] were 319 nM and 259 nM.
The corresponding values for `Clc1ccc2c(c1)c(OC1CCNCC1)nn2-c1ccccc1` [Example 101, 5-Chloro-1-phenyl-3-(piperidin-4-yloxy)-1H-indazole hydrochloride] are 607 nM and 304 nM.
As to `Fc1ccccc1-n1nc(OC2CCNCC2)c2cc(Cl)ccc21` [Example 102, 5-Chloro-1-(2-fluoro-phenyl)-3-(piperidin-4-yloxy)-1H-indazole hydrochloride], the Ki in assay [1] is 71.5 nM; in assay [2], 129 nM.
Take `Fc1cccc2c1c(OC1CCNCC1)nn2-c1ccccc1` [Example 103, 4-Fluoro-1-phenyl-3-(piperidin-4-yloxy)-1H-indazole hydrochloride]: the Ki came out at 34.1 nM in assay [1] and 293 nM in assay [2].
The corresponding values for `c1ccc(-n2nc(OC[C@H]3CCCNC3)c3cccnc32)cc1` [Example 104, (S)-(−)-1-Phenyl-3-(piperidin-3-ylmethoxy)-1H-pyrazolo[3,4-b]pyridine hydrochloride] are 89 nM and 1580 nM.
Taken in the same sequence, the figures for `c1ccc(-n2nc(OC[C@@H]3CNCCO3)c3cccnc32)cc1` [Example 105, (S)-(+)-3-(Morpholin-2-ylmethoxy)-1-phenyl-1H-pyrazolo[3,4-b]pyridine hydrochloride] were 294 nM and 4240 nM.
Consider `Fc1ccc2c(c1)c(OC1CCNCC1)nn2-c1c(F)cccc1F` [Example 108, 1-(2,6-Difluoro-phenyl)-5-fluoro-3-(piperidin-4-yloxy)-1H-indazole hydrochloride], for which the Ki worked out at 5.72 nM in assay [1] and 43 nM in assay [2].
Regarding `Fc1cccc(F)c1-n1nc(OC2CCNCC2)c2c(F)cccc21` [Example 109, 1-(2,6-Difluoro-phenyl)-4-fluoro-3-(piperidin-4-yloxy)-1H-indazole hydrochloride], the values for the Ki in assay [1] and in assay [2] were 46.2 nM and 279 nM, respectively.
`Fc1cccc(F)c1-n1nc(OC[C@H]2CCCNC2)c2c(F)cccc21` [Example 110, (S)-1-(2,6-Difluorophenyl)-4-fluoro-3-(piperidin-3-ylmethoxy)-1H-indazole hydrochloride]: the Ki in assay [1] worked out at 16.3 nM; in assay [2], 422 nM.
On to “(S)-1-(2,6-Difluoro-phenyl)-3-(morpholin-2-ylmethoxy)-1H-indazole hydrochloride [Example 24]”, for which the Ki was 9.65 nM in assay [1] and 5430 nM in assay [2].
Taken in the same sequence, the figures for “(S)-(−)-5-Fluoro-1-(2-fluorophenyl)-3-(piperidin-3-ylmethoxy)-1H-indazole hydrochloride [Example 47]” were 13 nM and 47 nM.
